# Laboratory results as given in patent US6506876B1, “LTA4 hydrolase inhibitor pharmaceutical compositions and methods of use” (G.D. Searle & Co., priority 1994, dated 2003).
# Structures can show the parent of a compound that is named as a salt.
# Test system: LTB4 production in human whole blood (LTA4 hydrolase)
# Assay: LTB4 production by calcium ionophore stimulated human blood
# Format: cell-based
# Details: Homo sapiens, human whole blood, A23187; read-out: Inhibition of Calcium Ionophore-Induced LTB4 Production in Human Blood IC50 HWB
# Procedure: LTB4 and Thromboxane Production by Calcium Ionophore Stimulated Human Blood for LTA4 Hydrolase Inhibitor Activity
# One or more concentrations of the leukotriene A4 hydrolase inhibitor compounds being tested were prepared (diluted in DMSO) and 2 μl added and gently mixed with the diluted whole blood. After incubating for 15 minutes at 37° C. in a humidified incubator, calcium ionophore A23187 (Sigma Chemical Co., St. Louis, Mo.) was added to a final concentration of 20 mcg/ml and the incubation continued under the same conditions for an additional 10 minutes to allow LTB4 formation. The reaction was terminated by centrifugation (833 g, 10 minutes at 4° C.) and supernatant were analyzed for LTB4 and thromboxane by commercially available enzyme-linked immunoassays (Caymen Chemical Co., Ann Arbor, Mich.) according to the manufacturer's instructions. The IC50 of each test compound was determined from the amount of inhibition of LTB4 production as compared to an essentially identical assay in which no inhibitor compound was present.
row,Compound,IC50 [nM]
1,c1ccc(Cc2ccc(OCCn3cnc4cnccc43)cc2)cc1 [340 B],330
2,c1ccc(Oc2ccc(OCCCn3cnc4cnccc43)cc2)cc1 [351 B],2080
3,"C(=C\c1ccc(OCCN2CCCC2)cc1)/c1ccccc1 [Example 46, 1-[2-[4-(2-phenylethenyl)phenoxy]ethyl]pyrrolidine]",1500
4,Fc1cc(OCCN2CCCC2)ccc1Cc1ccccc1 [Example 116],1090
5,COc1ccc(Cc2ccc(OCCN3CCCC3)cc2)cc1 [Example 128],890
6,Clc1ccc(Cc2ccc(OCCN3CCCC3)cc2)cc1 [Example 140],1010
7,CC(=O)NC1CCN(CCOc2ccc(Cc3ccccc3)cc2)CC1 [Example 238],180
8,CC(=O)NC1CCN(CCOc2ccc(Cc3ccccc3)cc2)C1 (stereo not shown) [Example 256],420
9,CCOC(=O)CNCCCOc1ccc(Cc2ccccc2)cc1 [Example 264],1100
10,CCOC(=O)CCNCCCOc1ccc(Cc2ccccc2)cc1 [Example 265],450
11,CCOC(=O)CCNCCCCOc1ccc(Cc2ccccc2)cc1 [Example 272],76
12,NC(=O)C1CCN(CC2Cc3cc(Cc4ccccc4)ccc3O2)CC1 (stereo not shown) [Example 281],169
13,CCOC(=O)CNCCCCOc1ccc(Cc2ccccc2)cc1 [Example 320],354
14,CCOC(=O)CNCCCCCOc1ccc(Cc2ccccc2)cc1 [Example 321],421
15,COC(=O)CCNCCOc1ccc(Cc2ccccc2)cc1 [Example 324],586
16,COC(=O)CCN(C)CCCOc1ccc(Cc2cccs2)cc1 [Example 331],95
17,c1ccc(Cc2ccc(OCCN3CCCCCCC3)cc2)cc1 [Example 398],470
18,O=C(CCNCCCOc1ccc(Cc2ccccc2)cc1)N1CCOCC1 [Example 424],580
19,NC(=O)C1CCN(CCOc2ccc(Cc3ccccc3)cc2)C1 (stereo not shown) [Example 425],360
20,O=c1[nH]c(C2CCCN(CCOc3ccc(Cc4ccccc4)cc3)C2)no1 (stereo not shown) [Example 448],825
21,NC1CCN(CCOc2ccc(Cc3ccccc3)cc2)C1 (stereo not shown) [Example 452],290
22,NC(=O)NC1CCN(CCOc2ccc(Cc3ccccc3)cc2)CC1 [Example 456],440
23,NC(=O)N1CCN(CCOc2ccc(Cc3ccccc3)cc2)CC1 [Example 459],2400
24,NCCOc1ccc(Cc2ccccc2)cc1 [Example 496],280

# Same assay, conditions: Homo sapiens, read-out: Inhibition of Calcium Ionophore-Induced LTB4 Production in Human Blood IC50 HWB
row,Compound,IC50 [nM]
1,"[O-][S+](CCN1CCCC1)c1ccc(Cc2ccccc2)cc1 (stereo not shown) [Example 69, 1-[2-[4-(phenylmethyl)phenylsulfinyl]ethyl]pyrrolidine, monohydrochloride]",11800
2,COC(=O)C1CCCN1CCOc1ccc(Cc2ccccc2)cc1 (stereo not shown) [Example 237],1860
3,CCOC(=O)C1CCN(CCOc2ccc(Cc3ccccc3)cc2)CC1 [Example 245],147
4,COC(=O)C1CC2CCC(C1)N2CC1Cc2cc(Cc3ccccc3)ccc2O1 (stereo not shown) [Example 283],90
5,c1ccc(Cc2ccc(OCCN3CCCCCC3)cc2)cc1 [Example 397],120

# Same assay, conditions: human whole blood, A23187; read-out: Inhibition of Calcium Ionophore-Induced LTB4 Production in Human Blood IC50 HWB
row,Compound,IC50 [nM]
1,c1ccc(Cc2ccc3c(c2)CC(Cn2cnc4cnccc42)O3)cc1 (stereo not shown) [358 B],640
2,c1ccc(Cc2ccc3c(c2)CC(Cn2ccc4ncnc-4c2)O3)cc1 (stereo not shown) [358 C],590
3,"c1ccc(Cc2ccc(OCCN3CCCC3)cc2)cc1 [Example 45, 1-[2-(4-phenylmethyl)phenoxyethyl]pyrrolidine]",116
4,CC(=O)NC1CCN(CCOc2ccc(Cc3ccccc3)cc2)C1 (stereo not shown) [Example 227],420
5,CCOC(=O)CC1CCN(CCOc2ccc(Oc3ccccc3)cc2)CC1 [Example 300],2510
6,CCOC(=O)C1C2CN(CCOc3ccc(Cc4ccccc4)cc3)CC21 (stereo not shown) [Example 325],2400
7,O=C(O)C1C2CN(CCOc3ccc(Cc4ccccc4)cc3)CC21 (stereo not shown) [Example 435],86
8,O=C(O)C1CCN(CCOc2ccc(Cc3cccs3)cc2)CC1 [Example 437],693
9,O=C(CCl)NC1CCN(CCOc2ccc(Cc3ccccc3)cc2)C1 (stereo not shown) [Example 454],610

# Test system: LTB4 production in mouse blood (LTA4 hydrolase)
# Assay: Ex vivo LTB4 production by calcium ionophore stimulated mouse blood after oral dosing
# Format: in vivo
# Details: Mus musculus, po, 1 h, read-out: Murine Ex Vivo LTB4 Inhibition % I LTB4
# How it was run: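 Male outbred mice dosed by oral gavage, 10 mg/kg (some at 50 mg/kg) in PBS with 2% DMSO and 1% Tween 80; heparinised blood taken at 60 min, calcium ionophore-stimulated 10 minutes at 37° C. LTB4 and thromboxane by ELISA; % inhibition against vehicle-dosed animals.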
row,Compound,inhibition in vivo at 10 mg/kg [%]
1,"[O-][S+](CCN1CCCC1)c1ccc(Cc2ccccc2)cc1 (stereo not shown) [Example 69, 1-[2-[4-(phenylmethyl)phenylsulfinyl]ethyl]pyrrolidine, monohydrochloride]",13
2,CCOC(=O)C1CCN(CCOc2ccc(Cc3ccccc3)cc2)CC1 [Example 245],97
3,COC(=O)C1CC2CCC(C1)N2CC1Cc2cc(Cc3ccccc3)ccc2O1 (stereo not shown) [Example 283],90

# Same assay, conditions: Mus musculus, po, 1 h; read-out: Murine Ex Vivo LTB4 Inhibition % I LTB4
row,Compound,inhibition in vivo at 10 mg/kg [%]
1,c1ccc(Cc2ccc3c(c2)CC(Cn2cnc4cnccc42)O3)cc1 (stereo not shown) [358 B],33
2,c1ccc(Cc2ccc3c(c2)CC(Cn2ccc4ncnc-4c2)O3)cc1 (stereo not shown) [358 C],13
3,"c1ccc(Cc2ccc(OCCN3CCCC3)cc2)cc1 [Example 45, 1-[2-(4-phenylmethyl)phenoxyethyl]pyrrolidine]",35

# Same assay, conditions: mouse, oral gavage, 1 hour after administration of 10 mg/kg
row,Compound,Murine Ex Vivo LTB4 Inhibition % I LTB4 [%]
1,CC(=O)NC1CCN(CCOc2ccc(Cc3ccccc3)cc2)C1 (stereo not shown) [Example 227],23

# Same assay, conditions: mouse, oral gavage, 1 hour after administration of 10 mg/kg; read-out: Murine Ex Vivo LTB4 Inhibition % I LTB4
row,Compound,inhibition in vivo at 10 mg/kg [%]
1,c1ccc(Cc2ccc(OCCn3cnc4cnccc43)cc2)cc1 [340 B],64
2,c1ccc(Oc2ccc(OCCCn3cnc4cnccc43)cc2)cc1 [351 B],71
3,"C(=C\c1ccc(OCCN2CCCC2)cc1)/c1ccccc1 [Example 46, 1-[2-[4-(2-phenylethenyl)phenoxy]ethyl]pyrrolidine]",13
4,Fc1cc(OCCN2CCCC2)ccc1Cc1ccccc1 [Example 116],18
5,COc1ccc(Cc2ccc(OCCN3CCCC3)cc2)cc1 [Example 128],74
6,Clc1ccc(Cc2ccc(OCCN3CCCC3)cc2)cc1 [Example 140],15
7,CC(=O)NC1CCN(CCOc2ccc(Cc3ccccc3)cc2)CC1 [Example 238],49
8,CC(=O)NC1CCN(CCOc2ccc(Cc3ccccc3)cc2)C1 (stereo not shown) [Example 256],23
9,CCOC(=O)CCNCCCOc1ccc(Cc2ccccc2)cc1 [Example 265],54
10,CCOC(=O)CCNCCCCOc1ccc(Cc2ccccc2)cc1 [Example 272],97
11,NC(=O)C1CCN(CC2Cc3cc(Cc4ccccc4)ccc3O2)CC1 (stereo not shown) [Example 281],83
12,CCOC(=O)CNCCCCOc1ccc(Cc2ccccc2)cc1 [Example 320],85
13,CCOC(=O)CNCCCCCOc1ccc(Cc2ccccc2)cc1 [Example 321],87
14,COC(=O)CCNCCOc1ccc(Cc2ccccc2)cc1 [Example 324],62
15,COC(=O)CCN(C)CCCOc1ccc(Cc2cccs2)cc1 [Example 331],97
16,c1ccc(Cc2ccc(OCCN3CCCCCCC3)cc2)cc1 [Example 398],0
17,NC(=O)C1CCN(CCOc2ccc(Cc3ccccc3)cc2)C1 (stereo not shown) [Example 425],60
18,NC1CCN(CCOc2ccc(Cc3ccccc3)cc2)C1 (stereo not shown) [Example 452],57
19,NC(=O)NC1CCN(CCOc2ccc(Cc3ccccc3)cc2)CC1 [Example 456],72
20,NC(=O)N1CCN(CCOc2ccc(Cc3ccccc3)cc2)CC1 [Example 459],44
21,NCCOc1ccc(Cc2ccccc2)cc1 [Example 496],54

# Same assay, conditions: mouse, oral gavage, 1 hour after administration of 50 mg/kg (*); read-out: Murine Ex Vivo LTB4 Inhibition % I LTB4
row,Compound,inhibition in vivo at 50 mg/kg [%]
1,CCOC(=O)CNCCCOc1ccc(Cc2ccccc2)cc1 [Example 264],87

# Target: T1, recombinant human LTA4 hydrolase (rhLTA4H) (Homo sapiens, UniProt P09960)
# T1 sequence (P09960 1-611): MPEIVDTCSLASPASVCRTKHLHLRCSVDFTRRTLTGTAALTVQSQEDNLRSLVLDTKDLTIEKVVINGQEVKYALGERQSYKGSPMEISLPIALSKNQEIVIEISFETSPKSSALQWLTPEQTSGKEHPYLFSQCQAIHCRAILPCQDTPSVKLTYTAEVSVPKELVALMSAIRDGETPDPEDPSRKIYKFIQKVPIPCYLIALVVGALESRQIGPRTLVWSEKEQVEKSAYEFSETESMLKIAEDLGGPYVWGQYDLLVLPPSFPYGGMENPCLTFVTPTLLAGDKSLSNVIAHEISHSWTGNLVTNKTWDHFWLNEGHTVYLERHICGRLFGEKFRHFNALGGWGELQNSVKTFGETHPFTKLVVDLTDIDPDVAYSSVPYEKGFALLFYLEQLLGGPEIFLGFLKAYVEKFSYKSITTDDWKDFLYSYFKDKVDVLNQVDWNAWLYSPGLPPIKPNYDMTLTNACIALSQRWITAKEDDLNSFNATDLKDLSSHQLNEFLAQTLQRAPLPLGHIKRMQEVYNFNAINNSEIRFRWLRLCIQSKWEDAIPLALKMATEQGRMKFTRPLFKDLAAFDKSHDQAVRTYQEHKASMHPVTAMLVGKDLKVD
# Assay: Recombinant human LTA4 hydrolase assay for LTA4 hydrolase inhibitor activity
# Details: Recombinant Human LTA4 Hydrolase Assay IC50 LTA4H, recombinant hLTA4H
row,Compound,IC50 [nM]
1,c1ccc(Cc2ccc(OCCn3cnc4cnccc43)cc2)cc1 [340 B],120
2,c1ccc(Oc2ccc(OCCCn3cnc4cnccc43)cc2)cc1 [351 B],290
3,c1ccc(Cc2ccc3c(c2)CC(Cn2cnc4cnccc42)O3)cc1 (stereo not shown) [358 B],410
4,c1ccc(Cc2ccc3c(c2)CC(Cn2ccc4ncnc-4c2)O3)cc1 (stereo not shown) [358 C],87
5,"[O-][S+](CCN1CCCC1)c1ccc(Cc2ccccc2)cc1 (stereo not shown) [Example 69, 1-[2-[4-(phenylmethyl)phenylsulfinyl]ethyl]pyrrolidine, monohydrochloride]",6520
6,COC(=O)C1CCCN1CCOc1ccc(Cc2ccccc2)cc1 (stereo not shown) [Example 237],450
7,CCOC(=O)C1CCN(CCOc2ccc(Cc3ccccc3)cc2)CC1 [Example 245],1770
8,CCOC(=O)CCNCCCOc1ccc(Cc2ccccc2)cc1 [Example 265],77
9,NC(=O)C1CCN(CC2Cc3cc(Cc4ccccc4)ccc3O2)CC1 (stereo not shown) [Example 281],93
10,COC(=O)C1CC2CCC(C1)N2CC1Cc2cc(Cc3ccccc3)ccc2O1 (stereo not shown) [Example 283],19
11,CCOC(=O)CC1CCN(CCOc2ccc(Oc3ccccc3)cc2)CC1 [Example 300],5000
12,CCOC(=O)C1C2CN(CCOc3ccc(Cc4ccccc4)cc3)CC21 (stereo not shown) [Example 325],20000
13,c1ccc(Cc2ccc(OCCN3CCCCCCC3)cc2)cc1 [Example 398],220
14,O=C(CCNCCCOc1ccc(Cc2ccccc2)cc1)N1CCOCC1 [Example 424],370
15,O=C(O)C1C2CN(CCOc3ccc(Cc4ccccc4)cc3)CC21 (stereo not shown) [Example 435],225
16,O=C(O)C1CCN(CCOc2ccc(Cc3cccs3)cc2)CC1 [Example 437],113
17,O=c1[nH]c(C2CCCN(CCOc3ccc(Cc4ccccc4)cc3)C2)no1 (stereo not shown) [Example 448],820
18,O=C(CCl)NC1CCN(CCOc2ccc(Cc3ccccc3)cc2)C1 (stereo not shown) [Example 454],140
19,NCCOc1ccc(Cc2ccccc2)cc1 [Example 496],10

# Same assay, conditions: read-out: Recombinant Human LTA4 Hydrolase Assay IC50 LTA4H
row,Compound,IC50 [nM]
1,c1ccc(Cc2ccc(OCCN3CCCCCC3)cc2)cc1 [Example 397],37

# Test system: not given
# Assay: not given
# Details: not given
row,Compound,melting point [°C]
1,"c1ccc(Oc2ccc(NCCN3CCCC3)cc2)cc1 (as salt: HCl) [Example 71, N-(4-phenoxyphenyl)-1-pyrrolidine ethanamine, monohydrochloride]",202 to 202.5
2,"Cl.c1ccc(Cc2ccc(SCCN3CCCC3)cc2)cc1 [Example 68, 1-[2-[4-(phenylmethyl)phenylthio]ethyl]pyrrolidine, monohydrochloride]",137 to 139
3,OCCOc1ccc(Oc2ccc(F)cc2)cc1 [Example 161],78 to 79
4,Oc1ccc(OCCN2CCCC2)cc1 [Example 199],113 to 115
